Laboratory results reported in article PMC9633773, “Discovering cell-active BCL6 inhibitors: effectively combining biochemical HTS with multiple biophysical techniques, X-ray crystallography and cell-based assays” (Scientific Reports, 2022).
Converted amounts (≈) assume the structure as drawn. Read-outs that look alike come from different tables or passages of the source.

Key:
Trx-6His-BCL6 BTB = molecular target: T1, Trx-6His-BCL6 BTB (Homo sapiens, UniProt P41182); test: TR-FRET assay, Trx-6His-BCL6 BTB / BCOR-A633 peptide; type: biochemical
T1 construct: made in house; host or cells: E. coli BL21-AI
Procedure: Each 15 µL TR-FRET reaction in 384-well black Proxiplate (Perkin Elmer) contained 1 or 10 nM Trx-6His-BCL6 BTB, 300 nM BCOR-A633 and 0.5 or 1 nM anti-6His-Terbium cryptate (Perkin Elmer), in the FP assay buffer (25 mM Hepes pH 8, 100 mM NaCl, 0.05% (v/v) Tween20, 0.5 mM TCEP), supplemented with 0.05% (w/v) bovine serum albumin. Test compounds in DMSO or DMSO alone were added to the wells using and Echo 550 acoustic dispenser to give the appropriate test concentration in 0.7% v/v DMSO final. After a 2 h incubation at room temperature, the plates were read on an Envision plate reader or a Pherastar FSX plate reader with 337 nm laser excitation, a first emission filter at 665 nm and a second emission filter at 615 or 620 nm. Data were normalised and IC50 determined as described above for the FP assay.

[1] = PAMPA passive permeability; type: in vitro ADME; design: PAMPA pH7.4: unit not given here; conditions: pH 7.4
Procedure: Passive diffusion permeability was measured using a parallel artificial membrane permeability assay (PAMPA). The assay used an artificial membrane consisting of 2% (v/v) phosphatidyl choline in dodecane (Sigma Aldrich, Dorset, UK). The donor plate was a MultiScreen-IP Plate with a 0.45 µm hydrophobe Immobilon-P membrane (Millipore, UK) and the acceptor plate was a MultiScreen 96-well transport receiver plate (Millipore, UK). The permeability of test compound (10 µM) was measured at pH 7.4 in buffer containing 1% (w/v) Bovine Serum Albumin (Sigma Aldrich, Dorset, UK) following a 16 h incubation at 30 °C. After transfer and centrifugation, sample supernatants were diluted and analysed using a Waters (Milford, MA, US) TQ-S LC-MS/MS system. Permeability values (cm/s) were calculated using the following equation, where VD and VA are the volumes of donor and acceptor, respectively, and area is the surface area of the membrane x porosity: Papp=C x ln1-Drugacceptor/Drugequilibrium,whereC=VDxVA/VD+VAx area x time

Caco-2 efflux ratio = type: in vitro ADME; conditions: human
HPLC aqueous solubility = type: physicochemical; conditions: aqueous buffer, kinetic from dmso stock; PBS buffer pH 7.4, 1% DMSO, maximum targeted concentration 100 µM; read-out: HPLC Sol.
Procedure: Solubility measurements by quantitative ^1H-NMR or HPLC method were performed as described previously.

[2] = molecular target: T2, ePL-tagged BCL6 BTB in HEK293T cells (Homo sapiens, UniProt P41182); test: InCELL Hunter cellular target engagement assay; type: cell-based
T2 construct: BCL6 BTB domain (HDSD51 plasmid construct encoding amino-acids 14–135) fused to a C-terminal ePL tag; expressed in transfected cells; host or cells: HEK293T
Procedure: BCL6 cellular target engagement assays were established using the InCELL Hunter™ Target Engagement Kit from DiscoverX-Eurofin. For the assay, the expressed protein comprised the N-terminal truncated region of BCL6 BTB domain (HDSD51 plasmid construct encoding amino-acids 14–135) fused to a C-terminal ePL tag (enhanced ProLabel, DiscoverX). Constructs were transfected over 24 h in HEK293T cells using Lipofectamine 3000 (ThermoFisher Scientific) and 2.5 × 10^5 transfected cells / well in phenol red-free OptiMEM medium (ThermoFisher Scientific) were re-plated in 384 assay plates before treating with compounds for 6 h. To complete the assay, cells were incubated for 30 min at room temperature with the InCell Hunter assay reagents mix following the manufacturer’s instructions, before reading the chemiluminescent signal on an Envision (Perkin Elmer) plate reader.

[3] = molecular target: T3, full-length BCL6/SMRT protein–protein interaction in HEK293T cells (Homo sapiens, UniProt P41182); test: NanoBRET cellular assay; type: cell-based
T3 construct: DNA encoding full length BCL6 and SMRT was inserted into pFC32K NanoLuc and pFC14K HaloTag vectors; expressed in transfected cells; host or cells: HEK293T

| IC50 (Trx-6His-BCL6 BTB; 1 or 10 nM Trx-6His-BCL6 BTB, read-out: TR-FRET IC50) [µM] | Papp at 16 h, 10 µM ([1]; PAMPA, read-out: PAMPA passive cell permeability) [nm/s] | efflux ratio (Caco-2 efflux ratio) | IC50 (Trx-6His-BCL6 BTB; 1 nM BCL6 BTB domain, geometric mean n=3–5, read-out: TR-FRET Geo Mean IC50) [µM] | solubility kinetic (HPLC aqueous solubility) [µM] | EC50 ([2]; Figure 6B, ePL-tagged BCL6 BTB 14–135, 6 h, n=3, read-out: InCELL Hunter EC50) [µM] | EC50 ([2]; Table S3, C-terminally ePL-tagged BCL6 BTB 14-135, 6 hours, read-out: InCELL Geomean EC50) [µM] | IC50 ([3]; BCL6.NanoLuc/SMRT.HaloTag configuration, HEK293T, 6 h, geometric mean n=3–4, read-out: Nano BRET Geo Mean IC50) [µM] | NanoBRET inhibition, HaloTag.BCL6/NanoLuc.SMRT combination ([3]; BCL6 N-terminally fused to HaloTag) | IC50 ([3]; Figure 7B, C-terminally NanoLuc tagged BCL6 / SMRT.HaloTag, read-out: NanoBRET IC50, BCL6.NanoLuc) [µM] | PAMPA pH7.4 [1] | Compound |
| --- | --- | --- | --- | --- | --- | --- | --- | --- | --- | --- | --- |
| 2.1 ± 0.1 | 1100 | 0.72 |  |  |  |  |  |  |  |  | CC(C)OC(=O)c1cc(Nc2ccc3c(c2)CC(=O)N3C)n2nccc2n1 [Compound 25, isopropyl 7-((1-methyl-2-oxoindolin-5-yl)amino)pyrazolo[1,5-a]pyrimidine-5-carboxylate] |
|  |  |  | 0.5 | 80 (≈ 35.4 µg/mL) | 24 ± 9 | 23.7 | 2.93 | only very weak inhibition | 3 | 19 | CNC(=O)c1cc(Nc2ccc3c(c2)n(CCC(C)(C)O)c(=O)n3C)c(C#N)c(Cl)n1 [Compound 27] |
